This assay has as its system P388 leukemia ip, CD2F1 mice, survival T/C. Description: NCI In Vivo Anticancer Drug Screen. Data for tumor model P388 Leukemia (intraperitoneal) in CD2F1 (CDF1) mice. Conditions: endpoint: median survival time, higher = longer survival. The method in brief: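 Mice carrying the transplanted tumor received test compound or vehicle. Survival was recorded in each group, and the value is the treated-group measurement divided by that of the vehicle-treated control group.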

[1] abbreviates: dose: 50.0 mg/kg/injection, schedule: Q01DX009 (ip), vehicle: saline with Tween-80.
Setting [2] is: dose: 100.0 mg/kg/injection, schedule: Q01DX009 (ip), vehicle: saline with Tween-80.
Setting [3] is: dose: 200.0 mg/kg/injection, schedule: Q01DX009 (ip), vehicle: saline with Tween-80.
The mark [4] stands for this setting: dose: 60.0 mg/kg/injection, schedule: Q01DX005 (ip), vehicle: saline.
The mark [5] stands for this setting: dose: 120.0 mg/kg/injection, schedule: Q01DX005 (ip), vehicle: saline.
The mark [6] stands for this setting: dose: 50.0 mg/kg/injection, schedule: Q01DX005 (ip), vehicle: saline.
Where [7] appears, read: dose: 100.0 mg/kg/injection, schedule: Q01DX005 (ip), vehicle: saline.
The mark [8] stands for this setting: dose: 200.0 mg/kg/injection, schedule: Q01DX005 (ip), vehicle: saline.
Where [9] appears, read: dose: 6.25 mg/kg/injection, schedule: Q01DX005 (ip), vehicle: saline with Tween-80.
[10] abbreviates: dose: 12.5 mg/kg/injection, schedule: Q01DX005 (ip), vehicle: saline with Tween-80.
Setting [11] is: dose: 7.5 mg/kg/injection, schedule: Q01DX005 (ip), vehicle: saline with Tween-80.
Where [12] appears, read: dose: 15.0 mg/kg/injection, schedule: Q01DX005 (ip), vehicle: saline with Tween-80.
The mark [13] stands for this setting: dose: 120.0 mg/kg/injection, schedule: Q01DX005 (ip), vehicle: saline with Tween-80.
Setting [14] is: dose: 50.0 mg/kg/injection, schedule: Q01DX005 (ip), vehicle: Klucel (hydroxypropylcellulose) (HPC).
[15] abbreviates: dose: 100.0 mg/kg/injection, schedule: Q01DX005 (ip), vehicle: Klucel (hydroxypropylcellulose) (HPC).
Where [16] appears, read: dose: 200.0 mg/kg/injection, schedule: Q01DX005 (ip), vehicle: Klucel (hydroxypropylcellulose) (HPC).

Where “and” joins values, the source holds several entries; their conditions need not be identical. Equal entries are not always repeated. Inconclusive results and toxic doses are left out.

For the compound `Cc1cc2ncc(-c3ccccc3)nc2cc1C`, the T/C (dose: 25.0 mg/kg/injection, schedule: Q01DX001 (ip), vehicle: saline with Tween-80) is 100 % of control; the T/C (dose: 50.0 mg/kg/injection, schedule: Q01DX001 (ip), vehicle: saline with Tween-80) is 100 % of control; the T/C (dose: 100.0 mg/kg/injection, schedule: Q01DX001 (ip), vehicle: saline with Tween-80) is 89 % of control and 90 % of control.

`O=C(Nc1cccc2nsnc12)c1ccc(C(=O)Nc2cccc3nsnc23)cc1`: the T/C was 97 % of control (dose: 0.46 mg/kg/injection, schedule: Q01DX005 (ip), vehicle: Klucel (hydroxypropylcellulose) (HPC)); 96 % of control (dose: 0.93 mg/kg/injection, schedule: Q01DX005 (ip), vehicle: Klucel (hydroxypropylcellulose) (HPC)); 98 % of control (dose: 1.87 mg/kg/injection, schedule: Q01DX005 (ip), vehicle: Klucel (hydroxypropylcellulose) (HPC)); 86 % of control (dose: 30.0 mg/kg/injection, schedule: Q01DX005 (ip), vehicle: Klucel (hydroxypropylcellulose) (HPC)); 98 % of control (dose: 240.0 mg/kg/injection, schedule: Q01DX005 (ip), vehicle: Klucel (hydroxypropylcellulose) (HPC)).

For `Nc1ccc(C(=O)O)c(C(=O)O)c1`, the T/C runs as follows: under setting [1], 100 % of control; (dose: 50.0 mg/kg/injection, schedule: Q04DX003 (ip), vehicle: saline with Tween-80) 91 % of control; under setting [2], 104 % of control; (dose: 100.0 mg/kg/injection, schedule: Q04DX003 (ip), vehicle: saline with Tween-80) 91 % of control; under setting [3], 100 % of control; (dose: 200.0 mg/kg/injection, schedule: Q04DX003 (ip), vehicle: saline with Tween-80) 91 % of control.

On to `CC(CN(C)C)C(/C=C/c1ccc(Cl)cc1)=N\NC(=O)c1ccccc1` (stereo not drawn), for which the T/C was 101 % of control (dose: 15.0 mg/kg/injection, schedule: Q01DX005 (ip), vehicle: saline); 100 % of control (dose: 30.0 mg/kg/injection, schedule: Q01DX005 (ip), vehicle: saline); 104 % of control and 121 % of control under setting [4]; 114 % of control under setting [5].

For the compound `O=C(O)CC(CC(=O)O)CN(CC(=O)O)Cc1ccccc1`, the T/C (dose: 20.0 mg/kg/injection, schedule: Q01DX005 (ip), vehicle: Klucel (hydroxypropylcellulose) (HPC)) was 102 % of control; the T/C (dose: 40.0 mg/kg/injection, schedule: Q01DX005 (ip), vehicle: Klucel (hydroxypropylcellulose) (HPC)) was 90 % of control; the T/C (dose: 80.0 mg/kg/injection, schedule: Q01DX005 (ip), vehicle: Klucel (hydroxypropylcellulose) (HPC)) is 91 % of control.

With `CC(C)NC(=S)S`, the T/C is, setting by setting: (dose: 25.0 mg/kg/injection, schedule: Q01DX009 (ip), vehicle: saline sonified) 104 % of control; (dose: 50.0 mg/kg/injection, schedule: Q01DX009 (ip), vehicle: saline sonified) 100 % of control; (dose: 100.0 mg/kg/injection, schedule: Q01DX009 (ip), vehicle: saline sonified) 109 % of control.

Regarding `C/C=C(\C(=O)O)S(=O)(=O)O.[Pb]`, the T/C (dose: 25.0 mg/kg/injection, schedule: Q01DX009 (ip), vehicle: saline with Tween-80) was 100 % of control and the T/C under setting [1] is 90 % of control.

In the case of `COc1cccc2c1C(=O)C1=C(C2=O)c2c(O)cc(CO)cc2C(O)C1O` (stereo not drawn), the T/C (dose: 6.25 mg/kg/injection, schedule: Q01DX005 (ip), vehicle: saline + Tween-80 + alcohol) was 113 % of control; the T/C (dose: 12.5 mg/kg/injection, schedule: Q01DX005 (ip), vehicle: saline + Tween-80 + alcohol) is 113 % of control; the T/C (dose: 25.0 mg/kg/injection, schedule: Q01DX005 (ip), vehicle: saline + Tween-80 + alcohol) is 120 % of control.

`CC1(C(=O)OCc2ccccc2)NCCS1` (stereo not drawn): the T/C runs as follows: under setting [1], 100 % of control; under setting [2], 96 % of control; under setting [3], 109 % of control.

In the case of `O=C(O)c1ccccc1-c1c2ccc(=Nc3ccccc3)cc-2oc2cc(Nc3ccc(S(=O)(=O)O)cc3)ccc12`, the T/C by setting is: under setting [6], 94 % of control; under setting [7], 98 % of control; under setting [8], 111 % of control.

`O=C(CCCCC(=O)Nc1cc(C2=NCCN2)cc(C2N=CCN2)c1)Nc1cc(C2=NCCN2)cc(C2=NCCN2)c1` (stereo not drawn): where the note is “dose: 6.25 mg/kg/injection, schedule: Q01DX005 (ip), vehicle: saline”, the T/C was 104 % of control.

For the compound `C/C1=C(O[Si](C)(C)C)/C(O[Si](C)(C)C)=C(/C)CCCC1`, the T/C is, setting by setting: under setting [1], 100 % of control; under setting [2], 94 % of control; under setting [3], 97 % of control.

Consider `O=NN(CCOCCCl)C(=O)NC1CCCCC1`, for which the T/C (dose: 6.25 mg/kg/injection, schedule: Q01DX009 (ip), vehicle: water) was 100 % of control; the T/C (dose: 12.5 mg/kg/injection, schedule: Q01DX009 (ip), vehicle: water) was 100 % of control; the T/C (dose: 25.0 mg/kg/injection, schedule: Q01DX009 (ip), vehicle: water) was 107 % of control; the T/C (dose: 200.0 mg/kg/injection, schedule: Q01DX009 (ip), vehicle: water) is 152 % of control.

Take `CC1C(C)(C)P(C)(=O)C1(C)C` (stereo not drawn): the T/C is 89 % of control (dose: 100.0 mg/kg/injection, schedule: Q04DX002 (ip), vehicle: saline with Tween-80) and 97 % of control (dose: 200.0 mg/kg/injection, schedule: Q04DX002 (ip), vehicle: saline with Tween-80).

On to `O=C(CN1CCCCC1)Nc1nc(-c2ccc(Cl)cc2)cs1`, for which the T/C is, setting by setting: under setting [9], 100 % of control; under setting [10], 94 % of control; (dose: 25.0 mg/kg/injection, schedule: Q01DX005 (ip), vehicle: saline with Tween-80) 89 % of control.

In the case of `c1ccc2cc(OCC3CO3)c(OCC3CO3)cc2c1` (stereo not drawn), the T/C reads like this: (dose: 1.88 mg/kg/injection, schedule: Q01DX005 (ip), vehicle: saline with Tween-80) 100 % of control; (dose: 3.75 mg/kg/injection, schedule: Q01DX005 (ip), vehicle: saline with Tween-80) 107 % of control; under setting [11], 116 % of control; under setting [12], 122 % of control; under setting [13], 151 % of control.

On to `CCN(CC)C(C)CN1c2ccccc2Sc2ccccc21` (stereo not drawn), for which the T/C under setting [6] was 100 % of control, the T/C under setting [7] is 99 % of control and the T/C under setting [8] was 100 % of control.

For `COc1c(-c2ccccc2)c(=O)n2c3cc(C)c(C)cc3n(C)c2c1C#N`, the T/C by setting is: (dose: 60.0 mg/kg/injection, schedule: Q01DX005 (ip), vehicle: saline with Tween-80) 100 % of control; under setting [13], 86 % of control; (dose: 240.0 mg/kg/injection, schedule: Q01DX005 (ip), vehicle: saline with Tween-80) 89 % of control.

For the compound `C#CCCCOCOCCOC`, the T/C was 101 % of control under setting [4] and 101 % of control under setting [5].

Turning to `O=C(NCCCl)Oc1ccc(F)cc1`, the T/C runs as follows: under setting [14], 100 % of control; under setting [15], 100 % of control; under setting [16], 110 % of control.

Regarding `O=C1C=CC(=CC=C2C=CN(CCCCCCCCCCCO)C=C2)C=C1`, the T/C is 111 % of control (dose: 1.56 mg/kg/injection, schedule: Q01DX005 (ip), vehicle: saline with Tween-80); 114 % of control and 118 % of control (dose: 3.12 mg/kg/injection, schedule: Q01DX005 (ip), vehicle: saline with Tween-80); 121 % of control under setting [9]; 109 % of control under setting [11]; 118 % of control and 121 % of control under setting [10]; 109 % of control and 111 % of control under setting [12]. The T/C by setting is: (dose: 30.0 mg/kg/injection, schedule: Q01DX005 (ip), vehicle: saline with Tween-80) 118 % of control; (dose: 50.0 mg/kg/injection, schedule: Q01DX005 (ip), vehicle: saline with Tween-80) 100 % of control.

In the case of `O=S(=O)(OCCCl)c1cc(Cl)c(Cl)cc1Cl`, the T/C was 105 % of control under setting [14], 114 % of control under setting [15] and 90 % of control under setting [16].

For `CC1OC(OC2C(Oc3cc(O)c4c(c3)OC(c3ccc(O)cc3)CC4=O)OC(CO)C(O)C2O)C(O)C(O)C1O` (stereo not drawn), the T/C runs as follows: under setting [6], 98 % of control; under setting [7], 97 % of control; under setting [8], 98 % of control.

The values are drawn from PubChem BioAssay AID330 (DTP/NCI, 2004).
